Laboratory results: patent US9334280B2, “Synthetic rigidin analogues as anticancer agents, salts, solvates and prodrugs thereof, and method of producing same” (New Mexico Technical Research Foundation, priority 2012, dated 2016)
Read-outs that look alike come from different tables or passages of the source.

Legend:
[1] = test system: HeLa cervical adenocarcinoma cells; assay: MTT antiproliferative assay, HeLa; assay type: cell-based; settings: Homo sapiens, MTT, ± SD
Method: (§1) Human T-cell leukemia cell line Jurkat (ATCC TIB-152, E6-1 clone) was cultured in RPMI-1640 (Invitrogen) supplemented with 10% FBS (Invitrogen), 100 mg/L penicillin G, 100 mg/L streptomycin, 1.0 mM sodium pyruvate, 1.5 g/L sodium bicarbonate, and 4.5 g/L glucose (all from Sigma). Human cervical cancer cell line HeLa (ATCC S3) was cultured in DMEM (Invitrogen) supplemented with 10% FBS, 100 mg/L penicillin G, and 100 mg/L streptomycin. MCF-7 (human mammary carcinoma) cells were cultured in DMEM supplemented with 1.0 mM sodium pyruvate, 1% GlutaMax™-1 (Invitrogen), 100 μg/mL penicillin, 100 μg/mL streptomycin, and 10% FBS. Human uterine sarcoma MES-SA and MES-SA/Dx5 cells were cultured in RPMI-1640 medium supplemented with 10% FBS, 100 mg/L penicillin G and 100 mg/L streptomycin. All cells were incubated at 37° C. in a humidified atmosphere with 5% CO2. The other cell lines were maintained in a similar fashion as previously described.
(§2) To evaluate antiproliferative properties of the compounds of Formula I, mitochondrial dehydrogenase activities were measured using the MTT assay. The cell lines were prepared by trypsinizing and seeding […] cells per well into microplates. All compounds were reconstituted in dimethyl sulfoxide (DMSO) at a concentration of either 100 mM or 25 mM prior to treatment. The cells were grown for 24 hrs before treatment at concentrations ranging from 0.004 to 100 microM and incubated for 48 hrs in 200 microL media. 20 microL of MTT reagent in serum free medium (5 mg/mL) was added to each well and incubated further for 2 hrs. Media was removed and the resulting formazan crystals were re-solubilized in 100 microL of DMSO and the optical density (OD) was measured using a Thermomax Molecular Device plate reader at a wavelength of 490 nm. The experiments were performed in quadruplicate and repeated at least twice for each compound per cell line. Cells treated with 0.1% DMSO were used as a negative control, while phenyl arsine oxide (PAO) was used as a positive killing control.
(§3) Human cancer cell lines were obtained from the American Type Culture Collection (ATCC, Manassas, Va., USA), the European Collection of Cell Culture (ECACC, Salisbury, UK) and the Deutsche Sammlung von Mikroorganismen and Zellkulturen (DSMZ, Braunschweig, Germany). Human cervical adenocarcinoma HeLa cells were cultured in DMEM supplemented with 10% fetal bovine serum (FBS). Human mammary carcinoma MCF-7 cells were cultured in RPMI supplemented with 10% FBS. The U87 and U373 cells were cultured in DMEM culture medium (Lonza code 12-136F, Vervier, Belgium), while the SKMEL-28 and A549 cells were cultured in RPMI culture medium (Lonza; code 12-115F) supplemented with 10% heat-inactivated FBS (Lonza, FBS South America code DE14-801F). […] All cell lines were cultured in T25 flasks, maintained and grown at 37° C., 95% humidity, 5% CO2.
(§4) To evaluate antiproliferative properties of the synthesized compounds, the MTT assay was used. The cell lines were assessed by trypsinizing each cell line and seeding 4×10^3 cells per well into 96-well plates. All compounds were dissolved in DMSO at a concentration of either 100 mM or 50 mM prior to cell treatment. The cells were grown for 24 h and then treated with compounds at concentrations ranging from 0.04 to 100 μM and incubated for 48 h in 200 μL media. 20 μL of MTT reagent in serum free medium (5 mg/mL) was added to each well and incubated further for 2 h. Media was removed, and the resulting formazan crystals were re-solubilized in 200 μL of DMSO. A490 was measured using a Thermomax Molecular Device plate reader. The experiments were performed in quadruplicate and repeated at least twice for each compound per cell line. Cells treated with 0.1% DMSO were used as a control, and 1 μM phenyl arsine oxide (PAO) was used as a positive killing control.

U-87 glioblastoma cells = assay: MTT antiproliferative assay, U-87; assay type: cell-based; settings: Homo sapiens, Table 6, 48 h, ± SD, read-out: GI50 in vitro Values, U-87
Method: as §3, §4

[2] = test system: A549 non-small-cell lung cancer cells; assay: MTT antiproliferative assay, A549; assay type: cell-based; settings: Homo sapiens, Table 6, 48 h, ± SD, read-out: GI50 in vitro Values, A549
Method: as §2, §3, §4

[3] = test system: MCF-7 mammary gland adenocarcinoma cells; assay: MTT antiproliferative assay, MCF-7; assay type: cell-based; settings: Homo sapiens, MCF7, 48 h, MTT, ± SD
Method: as §1, §2, §3, §4

HeLa and MCF-7 cells = assay: MTT antiproliferative activity, statements for HeLa and MCF-7; assay type: cell-based, human; settings: HeLa and MCF-7, 48 h
Method: as §2
The obtained compounds were evaluated for antiproliferative activities using the HeLa cell line as a model for human cervical adenocarcinoma and MCF-7 cells as a model for breast adenocarcinoma. The cells were treated with each compound for 48 h, and cell viability was assessed using the MTT method (Table 5).
as §4

[4] = test system: MES-SA/Dx5 uterine sarcoma cells (overexpress p-gp); assay: MTT antiproliferative assay, MDR MES-SA/Dx5; assay type: cell-based, human; settings: MES-SA/Dx5 vs MES-SA
Method: as §1, §2
The cells of such tumors are referred to as multidrug resistant (MDR). Thus, we assessed the compounds of Formula I for antiproliferative activity in an MDR cancer cell line. This was done using the uterine sarcoma cells, MES-SA/Dx5, which overexpress p-gp. The parental drug-responsive MES-SA cell line was used as control.

HeLa cells = assay: Flow cytometric cell cycle analysis (Vybrant Orange); assay type: cell-based, human; settings: 0.1 μM, 24 h
Method: To assess the effects of the analogues on the cell cycle, cell cycle analysis was performed. 70-80% confluent HeLa cells were trypsinized and seeded at an initial density of 2×10^5 cell per well into 6 well plates in DMEM supplemented with 10% FBS, 100 mg/L penicillin G and 100 mg/L streptomycin. The cells were allowed to adhere overnight and before treatment with compounds of Formula I at concentrations ranging from 0.1 to 10 microM. After 24 hrs, the cells were washed 3× with DMEM, trypsinized, pelleted, and re-suspended in 200 microL of culture medium containing 10 microM (2 microL/mL) vybrant orange dye. The samples in the labeling solution were transferred into Falcon tubes and incubated in a water bath for 30 mins at 37° C. The samples were then analyzed using a Becton Dickinson FACscan flow cytometer with CellQuest software. A 488 nm laser was utilized using parameters that can be found in Appendix B; 10,000 events were collected for analysis. Cells treated with 0.1% DMSO were used as a negative control and cells treated with colchicine were used as a positive control.
In further anticancer evaluation of compounds of Formula I cell cycle analysis was performed using the cell permeable DNA binding dye Vybrant Orange. In a normal population, cells are distributed among the three major phases of the cell cycle, G0/G1 in which there is one set of paired chromosomes per cell (2n), followed by the S or synthesis phase in which DNA is synthesized in preparation for division (there is a variable amount of DNA present during this phase) and finally G2/M phase in which the chromosomes of each cell have now been duplicated (4n). This DNA content can be measured using fluorescent DNA selective probes such as Vybrant Orange that produce signals that are proportional to DNA mass per cell. This dye interacts with double stranded DNA (dsDNA) in living cells and becomes fluorescent upon binding and thus can be used to track DNA content as cells progress through the various phases of the cell cycle using flow cytometry. Cell cycle analysis was performed on HeLa cells using Rig8 at various concentrations above and below the respective GI50. Since colchicine is a known antimitotic drug, it was utilized as a positive control, while HeLa cells treated with 0.1% DMSO were used as a negative control. FIG. 6 illustrates the results of this analysis using Rig 8 on HeLa cells.

[5] = Table 6, 48 h, read-out: GI50 in vitro Values, HeLa
[6] = Table 6, read-out: GI50 in vitro Values, MCF-7
[7] = Table 5, read-out: cell viability GI50, MCF-7
[8] = Table 5, 48 h, read-out: cell viability GI50, HeLa

| GI50 [1, 5] [µM] | GI50 (U-87 glioblastoma cells) [µM] | GI50 [2] [µM] | GI50 [3, 6] [µM] | GI50 [3, 7] [µM] | GI50 [1, 8] [µM] | Compound | antiproliferative activity (potency in words) (HeLa and MCF-7 cells) | also measured |
| --- | --- | --- | --- | --- | --- | --- | --- | --- |
| 0.29 ± 0.01 | 0.94 ± 0.12 | 0.65 ± 0.19 | 0.27 ± 0.03 | – | – | Cc1nc(=O)c2c(-c3cccc(Br)c3)c(C(=O)c3ccccc3)[nH]c2[nH]1 [Compound 19, 6-Benzoyl-5-(3-bromophenyl)-2-methyl-1H-pyrrolo[2,3-d]pyrimidin-4(7H)-one] | – | – |
| – | – | – | – | 0.045 ± 0.001 | – | C#CCCCc1nc(=O)c2c(-c3ccccc3)c(C(=O)c3ccccc3)[nH]c2[nH]1 [Compound 17, 6-Benzoyl-2-(pent-4-ynyl)-5-phenyl-1H-pyrrolo[2,3-d]pyrimidin-4(7H)-one] | nanomolar | – |
| 0.29 ± 0.01 | 0.72 ± 0.06 | 0.38 ± 0.08 | 0.27 ± 0.01 | – | – | Cc1nc(=O)c2c(-c3cc(Br)cc(Br)c3)c(C(=O)c3ccccc3)[nH]c2[nH]1 [Compound 23, 6-Benzoyl-5-(3,5-dibromophenyl)-2-methyl-1H-pyrrolo[2,3-d]pyrimidin-4(7H)-one] | – | – |
| – | – | – | – | – | – | CC[C@]1(O)C[C@@H]2CN(CCc3c([nH]c4ccccc34)[C@@](C(=O)OC)(c3cc4c(cc3OC)N(C)[C@H]3[C@@](O)(C(=O)OC)[C@H](OC(C)=O)[C@]5(CC)C=CCN6CC[C@]43[C@@H]65)C2)C1 [Vinblastine, reference compound] | – | times less potent against the MDR cells compared with the parental MES-SA cells [4]: ca. 1000 times |
| 0.27 ± 0.01 | 0.9 ± 0.16 | 0.6 ± 0.23 | 0.23 | – | – | Cc1nc(=O)c2c(-c3cccc(Cl)c3)c(C(=O)c3ccccc3)[nH]c2[nH]1 [Compound 18, 6-Benzoyl-5-(3-chlorophenyl)-2-methyl-1H-pyrrolo[2,3-d]pyrimidin-4(7H)-one] | – | – |
| 0.29 ± 0.03 | 1.7 ± 0.1 | 1 ± 0.9 | 0.36 ± 0.02 | – | – | Cc1nc(=O)c2c(-c3cccc(F)c3)c(C(=O)c3ccccc3)[nH]c2[nH]1 [Compound 20, 6-Benzoyl-5-(3-fluorophenyl)-2-methyl-1H-pyrrolo[2,3-d]pyrimidin-4(7H)-one] | – | – |
| – | – | – | – | – | – | COc1cc2c(c(OC)c1OC)-c1ccc(OC)c(=O)cc1[C@@H](NC(C)=O)CC2 [Colchicine, reference compound] | – | % Relative DNA Content, G0/G1 (HeLa cells): 28.7 ± 1.2%; % Relative DNA Content, G2/M (HeLa cells): 53.6 ± 1.3%; % Relative DNA Content, S (HeLa cells): 15.7 ± 1.9% |
| 0.029 ± 0.001 | 0.077 ± 0.002 | 0.25 ± 0.01 | 0.035 ± 0.003 | 0.035 ± 0.003 | 0.029 ± 0.001 | Cc1nc(=O)c2c(-c3ccccc3)c(C(=O)c3ccccc3)[nH]c2[nH]1 [Compound 13, 6-Benzoyl-2-methyl-5-phenyl-1H-pyrrolo[2,3-d]pyrimidin-4(7H)-one] | nanomolar | – |
| – | – | – | – | 10.4 ± 0.8 | 11.1 ± 0.4 | CCOc1nc(=O)c2c(-c3ccccc3)c(C(=O)c3ccccc3)[nH]c2[nH]1 [Compound 8] | double to single digit micromolar | – |
| – | – | – | – | 8.3 ± 0.8 | 9.1 ± 0.3 | CC(C)c1nc(=O)c2c(-c3ccccc3)c(C(=O)c3ccccc3)[nH]c2[nH]1 [Compound 9] | double to single digit micromolar | – |
| – | – | – | – | 23.1 ± 0.5 | 18.4 ± 1.8 | O=C(c1ccccc1)c1[nH]c2[nH]c(-c3ccco3)nc(=O)c2c1-c1ccccc1 [Compound 6] | double to single digit micromolar | – |
| – | – | – | – | 2.5 ± 0.3 | 2.7 ± 0.2 | O=C(c1ccccc1)c1[nH]c2[nH]c(-c3ccccn3)nc(=O)c2c1-c1ccccc1 [Compound 5] | double to single digit micromolar | – |
| – | – | – | – | – | – | CC(=O)O[C@H]1C(=O)[C@@]2(C)[C@H]([C@H](OC(=O)c3ccccc3)[C@]3(O)C[C@H](OC(=O)[C@H](O)[C@@H](NC(=O)c4ccccc4)c4ccccc4)C(C)=C1C3(C)C)[C@]1(OC(C)=O)CO[C@@H]1C[C@@H]2O [Taxol, reference compound] | – | times less potent against the MDR cells compared with the parental MES-SA cells [4]: ca. 1000 times |
